According to US20220380801A1, “TRIPARTITE SYSTEMS FOR PROTEIN DIMERIZATION AND METHODS OF USE” (priority 2019, published 2022):

How the values were obtained:
[1] = test system: IL-2 production by split CAR-expressing Jurkat cells; assay: Split chimeric antigen receptor activation assay; format: cell-based
Source text: A chimeric antigen receptor (CAR), a synthetic, genetically engineered version of a T-cell receptor, can direct the activation of immune cells in response to user-defined targets via target-specific recognition domains, e.g. a single chain variable antibody fragment (scFv). These multi-domain, synthetic proteins are typically constructed by fusion of the target recognition domain to a transmembrane domain, T-cell receptor co-stimulatory domain and a C-terminal CD3 zeta cytoplasmic activation domain. A split-CAR can be generated by expressing the target recognition/transmembrane/co-stimulatory domain and the CD3 zeta activation domain as two separate proteins. […]
Lentiviral particles encoding each split CAR were generated using the pPACKH1 HIV lentivector packaging kit (Systems Bioscience), according to the manufacturer's protocol. […] Split CAR-transduced Jurkat cell pools were FACS-sorted based on GFP fluorescence to achieve equivalent expression levels for both the FKBP12:FRB and HCV NS3/4A PR (S139A):PRSIM_23 CARs before functional testing. Activation of the split-CAR-expressing Jurkat cells can be measured by interleukin-2 (IL-2) production after stimulation of the CAR (Smith-Garvin, Koretzky, and Jordan 2009). […]

HCV NS3/4A K136D PR = HCV NS3/4A K136D PR (Hepatitis C virus subtype 1a, UniProt A8DG50, A1066T/I1043Q/I1044E/K1162D/L1039E/L1040E/L1047Q/S1165A, form not given); assay: Octet RED384 simeprevir affinity; format: binding
Procedure: (§1) The biotinylated HCV NS3/4A PR (S139A), HCV NS3/4A K136D PR, HCV NS3/4A K136N PR and HCV NS3/4A D168E PR were loaded on High Precision Streptavidin (SAX) biosensors at a concentration of 2 μg/ml in 10 mM Hepes pH 7.4, 150 mM NaCl, 0.05% Surfactant P20, 0.3% DMSO. The simeprevir was diluted […] (46.88-3,000 nM) in the same buffer and the loaded biosensors were dipped into the simeprevir samples for 180 sec to measure the association. For the dissociation the biosensors were dipped into the buffer for 600 sec. The traces were analysed using ForteBio Data Analysis software and fit globally using a 1:1 binding model.

HCV NS3/4A K136N PR = HCV NS3/4A K136N PR (Hepatitis C virus subtype 1a, UniProt A8DG50, A1066T/I1043Q/I1044E/K1162N/L1039E/L1040E/L1047Q/S1165A, form not given); assay: Octet RED384 simeprevir affinity; format: binding
Procedure: as §1

HCV NS3/4A D168E PR = HCV NS3/4A D168E PR (Hepatitis C virus subtype 1a, UniProt A8DG50, A1066T/D1194E/I1043Q/I1044E/L1039E/L1040E/L1047Q/S1165A, form not given); assay: Octet RED384 simeprevir affinity; format: binding
Procedure: as §1

HCV NS3/4A PR (S139A) = HCV NS3/4A PR (S139A) (Hepatitis C virus subtype 1a, UniProt A8DG50, A1066T/I1043Q/I1044E/L1039E/L1040E/L1047Q/S1165A, form not given); assay: Octet RED384 simeprevir affinity; format: binding; details: WT (S139A)
Procedure: as §1

Structure (SMILES): COc1ccc2c(O[C@@H]3C[C@H]4C(=O)N[C@]5(C(=O)NS(=O)(=O)C6CC6)C[C@H]5/C=C\CCCCN(C)C(=O)[C@@H]4C3)cc(-c3nc(C(C)C)cs3)nc2c1C [simeprevir]
- activation of CAR-expressing Jurkat cells (IL-2 production) ([1]; co-culture with antigen-negative A375 cells): no activation
- activation of CAR-expressing Jurkat cells (IL-2 production) ([1]; co-culture with antigen-positive HepG2 cells): dose-dependent activation
- Kd (HCV NS3/4A K136D PR): 62.6 nM
- decreased simeprevir affinity compared to ‘WT’ (S139A) (HCV NS3/4A K136D PR): ~3.5 fold
- koff (HCV NS3/4A K136D PR): 0.00234 s⁻¹
- kon (HCV NS3/4A K136D PR): 36200 M⁻¹ s⁻¹
- Kd (HCV NS3/4A K136N PR): 31.5 nM
- decreased simeprevir affinity compared to ‘WT’ (S139A) (HCV NS3/4A K136N PR): ~2 fold
- koff (HCV NS3/4A K136N PR): 0.00107 s⁻¹
- kon (HCV NS3/4A K136N PR): 33800 M⁻¹ s⁻¹
- Kd (HCV NS3/4A D168E PR): 33 nM
- decreased simeprevir affinity compared to ‘WT’ (S139A) (HCV NS3/4A D168E PR): ~2 fold
- koff (HCV NS3/4A D168E PR): 0.000665 s⁻¹
- kon (HCV NS3/4A D168E PR): 20000 M⁻¹ s⁻¹
- Kd (HCV NS3/4A PR (S139A)): 17.8 nM
- koff (HCV NS3/4A PR (S139A)): 0.000495 s⁻¹
- kon (HCV NS3/4A PR (S139A)): 27800 M⁻¹ s⁻¹
